The values below come from ChEMBL document CHEMBL1201862, “PubChem BioAssay data set” (2004).

Test systems include Malme-3M; OVCAR-3; KM12; HL-60; ACHN; SK-MEL-5; SR; SF-295; UACC-62; U-251; SN12C; A498; RXF 393; UO-31; HCT-15; SW-620; HOP-92.
Common to all, as to test: NCI-60 cell line screen, 48 h

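Briefly, cells in 96-well plates were exposed to five compound concentrations for 48 h, and endpoints were estimated by linear interpolation. The concentration for 50% growth inhibition is given as GI50.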 Active and inactive are the calls of the source. Rule as the data show it: active = GI50 up to about 1.1 µM and inactive = higher. A value given as a limit tells only on which side of the number the result lay.

As for `CN(C)C(=O)CC(C(=O)O)c1c[nH]c2ccccc12` (configuration not stated), the GI50 in the assay on Malme-3M, with OVCAR-3, with KM12, in the assay on HL-60, in the assay on ACHN and with SK-MEL-5 was > 100 µM (inactive) in each case. Further, the GI50 in the assay with SR, with SF-295, in the assay with UACC-62, in the assay on U-251, with SN12C and with A498 was > 100 µM (inactive) each time. For the same compound, the GI50 in the assay with RXF 393 is 10.2 µM (inactive); with UO-31, 0.0895 µM (active); with HCT-15, more than 100 µM; in the assay with SW-620, > 100 µM (inactive).
On to `CC[N+](C)(CC)CC(C)(C)C(=O)/C=C/c1ccc(/C=C/C(=O)C(C)(C)C[N+](C)(CC)CC)cc1`, for which the GI50 in the assay on Malme-3M, with OVCAR-3, in the assay on KM12, with HL-60, in the assay on ACHN and in the assay on SK-MEL-5 was > 100 µM (inactive) throughout. For the same compound, the GI50 with SF-295, with UACC-62, in the assay with U-251, with SN12C, with A498 and in the assay on RXF 393 was > 100 µM (inactive) throughout. For the same compound, the GI50 in the assay with HOP-92 was > 100 µM (inactive); in the assay with UO-31 it was > 100 µM (inactive); with HCT-15, more than 100 µM; with SW-620, > 100 µM (inactive).
As to `O=C(O)C1=NN=C(C(=O)O)NN1`, the GI50 with Malme-3M, with OVCAR-3, with KM12, with HL-60, with ACHN and in the assay with SK-MEL-5 was > 100 µM (inactive) in each case. Moreover, the GI50 with SF-295, with UACC-62, in the assay on U-251, with SN12C, in the assay with RXF 393 and with HOP-92 was > 100 µM (inactive) each time. Moreover, the results for the GI50 in the assay with UO-31, with HCT-15 and in the assay on SW-620 were > 100 µM (inactive), more than 100 µM and 38.6 µM (inactive), respectively.
On to `COc1cccc(NC(=O)CC(=O)N2N=C(n3ccc4ccccc43)CC2c2ccccc2)c1` (configuration not stated), for which the GI50 in the assay on Malme-3M, with OVCAR-3, in the assay on KM12, with HL-60, in the assay on ACHN and with SF-295 was > 100 µM (inactive) each time. For the same compound, the GI50 in the assay with UACC-62 was > 100 µM (inactive); in the assay on U-251, > 100 µM (inactive); in the assay with SN12C it was > 100 µM (inactive); in the assay with A498 it was > 100 µM (inactive); in the assay on RXF 393 it was > 100 µM (inactive); in the assay with HOP-92, 55.6 µM (inactive). The GI50 is > 100 µM (inactive) in the assay on UO-31, more than 100 µM in the assay on HCT-15 and > 100 µM (inactive) with SW-620.
For `CC(=O)N1CC(=O)NC1=S`, the GI50 in the assay on Malme-3M, in the assay on OVCAR-3, with KM12, in the assay on HL-60, in the assay on ACHN and in the assay with SK-MEL-5 was > 100 µM (inactive) each time. Moreover, the GI50 in the assay on SR, in the assay on SF-295, in the assay with UACC-62, in the assay on U-251, with SN12C and with HOP-92 was > 100 µM (inactive) each time. Besides, the figures for the GI50 in the assay on UO-31, in the assay with HCT-15 and in the assay with SW-620 were > 100 µM (inactive), more than 100 µM and > 100 µM (inactive), respectively.
Consider `COc1ccc2occ(CCC(=O)O)c2c1`, for which the GI50 with OVCAR-3, in the assay on HL-60, in the assay with ACHN, with SK-MEL-5, in the assay with SF-295 and in the assay with UACC-62 was > 100 µM (inactive) in each case. Moreover, the GI50 with U-251 was > 100 µM (inactive); in the assay on SN12C, > 100 µM (inactive); with A498 it was > 100 µM (inactive); in the assay on RXF 393, > 100 µM (inactive); in the assay on HOP-92, > 100 µM (inactive); with HCT-15, more than 100 µM. For the same compound, the GI50 in the assay with SW-620 was > 100 µM (inactive).
For the compound `Cn1cnc([N+](=O)[O-])c1Sc1nccn1-c1cccc2ccccc12`, the GI50 was 13.7 µM (inactive) in the assay on Malme-3M; 22.9 µM (inactive) in the assay with OVCAR-3; 35.7 µM (inactive) in the assay on KM12; 26.4 µM (inactive) with ACHN; 29.2 µM (inactive) in the assay on SK-MEL-5; 15.8 µM (inactive) in the assay on SR. For the same compound, the GI50 in the assay on SF-295 is 48.4 µM (inactive); in the assay on UACC-62, 16.4 µM (inactive); with U-251, 26.2 µM (inactive); with SN12C it was 31.7 µM (inactive); in the assay with A498 it was 32.7 µM (inactive); in the assay with HOP-92, 15.3 µM (inactive). Besides, the results for the GI50 in the assay with UO-31 and in the assay on SW-620 were 16.7 µM (inactive) and 26.2 µM (inactive), respectively.
`CCOC(OCC)c1ccc(/C=C/c2cc(OC)c(OC)c(OC)c2)cc1`: the GI50 with Malme-3M was 17.1 µM (inactive); in the assay with OVCAR-3, 18 µM (inactive); with KM12, > 10 µM (inactive); in the assay with HL-60 it was 11.7 µM (inactive); in the assay on ACHN, 37.8 µM (inactive); in the assay on SK-MEL-5, 15.2 µM (inactive). For the same compound, the GI50 with SF-295 was 19.2 µM (inactive); in the assay with UACC-62, 16.4 µM (inactive); with U-251 it was 16.3 µM (inactive); in the assay on SN12C it was 18.9 µM (inactive); with A498, 18.8 µM (inactive); with RXF 393, 19.8 µM (inactive). The GI50 was 21.8 µM (inactive) in the assay on HOP-92, 15.1 µM (inactive) with UO-31, 15.9 µM with HCT-15 and 22.7 µM (inactive) in the assay with SW-620.
For the compound `Cc1cccc(C)c1NC(=O)CCC/C(CC(=O)c1ccc(F)cc1)=N\NC(=O)C(=O)NN`, the GI50 in the assay with Malme-3M, with OVCAR-3, in the assay on KM12, with HL-60, in the assay with ACHN and in the assay on SK-MEL-5 was > 100 µM (inactive) each time. For the same compound, the GI50 is > 100 µM (inactive) with SF-295; > 100 µM (inactive) with UACC-62; > 100 µM (inactive) with U-251; > 100 µM (inactive) in the assay with SN12C; > 100 µM (inactive) with A498; 21.9 µM (inactive) with RXF 393. The GI50 with UO-31 was > 100 µM (inactive); with HCT-15 it was more than 100 µM; with SW-620, > 100 µM (inactive).
On to `C=C(COC(C)=O)CC(/C=C(\C)CC/C=C(\C)CO)OC(C)=O` (configuration not stated), for which the GI50 in the assay with OVCAR-3, in the assay on KM12, in the assay with HL-60, in the assay with ACHN, in the assay with SK-MEL-5 and with SF-295 was > 100 µM (inactive) in each case. In addition, the GI50 is > 100 µM (inactive) with UACC-62; > 100 µM (inactive) with U-251; > 100 µM (inactive) in the assay on SN12C; > 100 µM (inactive) with A498; > 100 µM (inactive) with RXF 393; 54.8 µM (inactive) in the assay with HOP-92. For the same compound, the GI50 is > 100 µM (inactive) in the assay on UO-31, more than 100 µM in the assay on HCT-15 and > 100 µM (inactive) in the assay on SW-620.
Regarding `Nc1nc(Cl)cc(NCCCCCNc2cc(Cl)nc(N)n2)n1`, the GI50 with OVCAR-3 is 42 µM (inactive); with KM12 it was > 100 µM (inactive); in the assay with HL-60, 27.3 µM (inactive); in the assay with ACHN it was 15.2 µM (inactive); in the assay on SK-MEL-5 it was 23.5 µM (inactive); with SR, 38.7 µM (inactive). Also, the GI50 in the assay on SF-295 is 29.2 µM (inactive); with UACC-62, 24 µM (inactive); in the assay on U-251 it was > 100 µM (inactive); in the assay with SN12C it was > 100 µM (inactive); in the assay on RXF 393 it was 58.3 µM (inactive); with HOP-92, 28.2 µM (inactive). The GI50 with UO-31 was > 100 µM (inactive); in the assay with HCT-15, 73.6 µM; in the assay with SW-620, > 100 µM (inactive).
Regarding `O=C(Cn1ccnc1[N+](=O)[O-])c1ccccc1`, the GI50 with Malme-3M, in the assay on OVCAR-3, in the assay with KM12, in the assay with HL-60, in the assay on ACHN and in the assay with SK-MEL-5 was > 100 µM (inactive) each time. Also, the GI50 in the assay with SF-295, in the assay on UACC-62, in the assay on SN12C, with A498, with RXF 393 and in the assay on HOP-92 was > 100 µM (inactive) each time. Also, the GI50 is > 100 µM (inactive) in the assay on UO-31, more than 100 µM in the assay with HCT-15 and > 100 µM (inactive) in the assay on SW-620.
As to `Nc1nc2c(c(=O)[nH]1)NC(CO)CN2` (configuration not stated), the GI50 was > 100 µM (inactive) in the assay with Malme-3M; > 100 µM (inactive) with OVCAR-3; > 100 µM (inactive) with KM12; > 100 µM (inactive) in the assay with HL-60; 79.4 µM (inactive) in the assay with ACHN; 89.5 µM (inactive) with SF-295. The GI50 was 84.7 µM (inactive) in the assay on UACC-62; > 100 µM (inactive) with U-251; > 100 µM (inactive) with SN12C; > 100 µM (inactive) in the assay with RXF 393; > 100 µM (inactive) in the assay on UO-31; more than 100 µM in the assay on HCT-15. Also, in the assay with SW-620, the GI50 is 37.9 µM (inactive).
For the compound `CC1Cc2c(N)nc(NN)nc2NC1=O` (configuration not stated), the GI50 in the assay on Malme-3M, in the assay on OVCAR-3, in the assay with KM12, with HL-60, in the assay with ACHN and in the assay on SK-MEL-5 was > 100 µM (inactive) in each case. Moreover, the GI50 in the assay on SF-295, in the assay on UACC-62, in the assay with U-251, with SN12C, in the assay with RXF 393 and with UO-31 was > 100 µM (inactive) each time. Further, the GI50 in the assay with HCT-15 was more than 100 µM; with SW-620, > 100 µM (inactive).
